The text below walks through data of patent US5500424A, “Pyrimidine and pyridine derivatives, their production and use” (Nihon Nohyaku Co., Ltd., priority 1993, dated 1996).

The structures appear in SMILES notation.

The first experiment deals with T1, acyl-CoA:cholesterol acyltransferase (ACAT) (Oryctolagus cuniculus, UniProt G1SFD9).
T1 construct: The intestinal mucosa of a white rabbit was homogenized and microsomal fraction was obtained; from tissue; host or cells: white rabbit intestinal mucosa, microsomal fraction
T1 sequence (G1SFD9 1-524): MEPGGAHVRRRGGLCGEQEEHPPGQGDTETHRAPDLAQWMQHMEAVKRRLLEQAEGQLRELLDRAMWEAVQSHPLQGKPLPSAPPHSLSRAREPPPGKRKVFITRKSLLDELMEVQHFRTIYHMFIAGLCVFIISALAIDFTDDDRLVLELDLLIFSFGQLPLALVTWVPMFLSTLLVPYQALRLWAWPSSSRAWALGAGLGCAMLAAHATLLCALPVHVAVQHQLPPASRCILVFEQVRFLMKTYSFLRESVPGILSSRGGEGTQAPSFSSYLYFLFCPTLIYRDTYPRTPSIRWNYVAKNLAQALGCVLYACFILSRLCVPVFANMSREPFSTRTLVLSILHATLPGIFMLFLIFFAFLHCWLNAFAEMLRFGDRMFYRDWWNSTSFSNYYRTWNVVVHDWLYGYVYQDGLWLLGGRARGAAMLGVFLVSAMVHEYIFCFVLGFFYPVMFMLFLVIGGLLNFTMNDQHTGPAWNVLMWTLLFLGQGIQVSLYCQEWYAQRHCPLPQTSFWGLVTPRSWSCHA
Briefly: Inhibitory activity on acyl-CoA:cholesterol acyltransferase (ACAT). The class given is biochemical, white rabbit. The following applies: 0.01 μM; rabbit intestinal mucosa microsomes; read-out: Inhibition rate. The procedure: Inhibitory activity on acyl-CoA:cholesterol acyltransferase (ACAT)
The enzyme used in the test was prepared according to the method of Heider et al. [J. Lipid, Res. 24, 1127 (1983)]. The intestinal mucosa of a white rabbit was homogenized and microsomal fraction was obtained by stepwise centrifugation. The microsomal fraction was suspended in 0.154M phosphate buffer (pH 7.4) and stored at -80° C. until use.
ACAT activity was determined by a modification of the method of Helgerud et al. [J. Lipid Res. 22, 271 (1981)] by measuring radioactivity incorporated into cholesterol esters from [1-^14 C]oleyl-CoA, as an indication. As to the ACAT-inhibitory activity of each compound to be tested, the inhibition rate was calculated by the following equation. [formula]
For the compound `Cc1cccc(C(C)C)c1NC(=O)Nc1c(C)nc(-c2ccccc2)nc1-c1ccccc1Cl` [Compound 1, N-[4-(2-Chlorophenyl)-6-methyl-2-phenylpyrimidin-5-yl]-N'-(2-isopropyl-6-methylphenyl)urea], the inhibition at 0.01 µM is 16.7%.

On to `Cc1cccc(C)c1NC(=O)Nc1cnc(-c2ccccc2)nc1-c1ccccc1Cl` [Compound 13, N-[4-(2-Chlorophenyl)-2-phenylpyrimidin-5-yl]-N'-(2,6-dimethylphenyl)urea], for which the inhibition at 0.01 µM came to 40.2%. Same read-out and setting: under `Cc1cccc(N(C)C)c1NC(=O)Nc1cnc(-c2ccccc2)nc1-c1ccccc1Cl` [Compound 19, N-[4-(2-Chlorophenyl)-2-phenylpyrimidin-5-yl]-N'-(2-dimethylamino-6-methylphenyl)urea] stands 35.9%; under `CC(C)c1cccc(C(C)C)c1NC(=O)Nc1cnc(-c2ccccc2)nc1-c1cccc(Cl)c1` [Compound 26, N-[4-(3-Chlorophenyl)-2-phenylpyrimidin-5-yl]-N'-(2,6-diisopropylphenyl)urea], 58.9%. Still for that read-out and setting: the result for `CC(C)c1cccc(C(C)C)c1NC(=O)Nc1cnc(-c2ccccc2)nc1-c1ccc(Cl)cc1` [Compound 28, N-[4-(4-Chlorophenyl)-2-phenylpyrimidin-5-yl]-N'-(2,6-diisopropylphenyl)urea] reads 40.7%; that for `CC(C)c1cccc(C(C)C)c1NC(=O)Nc1cnc(-c2ccccc2)nc1-c1ccc(Cl)cc1Cl` [Compound 30, N-[4-(2,4-Dichlorophenyl)-2-phenylpyrimidin-5-yl]-N'-[2,6-diisopropylphenyl)urea], 37.1%; that for `COc1ccccc1-c1nc(-c2ccccc2)ncc1NC(=O)Nc1c(C(C)C)cccc1C(C)C` [Compound 40, N-(2,6-Diisopropylphenyl)-N'-[4-(2-methoxyphenyl)-2-phenylpyrimidin-5-yl]urea], 47.5%.

With `CCc1cccc(CC)c1NC(=O)Nc1cnc(-c2ccccc2)nc1-c1ccccc1SC` [Compound 41, N-(2,6-Diethylphenyl)-N'-[4-(2-methylthiophenyl)-2-phenylpyrimidin-5-yl]urea], the inhibition at 0.01 µM is 56.3%. Regarding `CC(C)c1cccc(C(C)C)c1NC(=O)Nc1cnc(-c2cc(Cl)cc(Cl)c2)nc1-c1ccccc1Cl` [Compound 44, N-[4-(2-Chlorophenyl)-2-(3,5-dichlorophenyl)pyrimidin-5-yl]-N'-(2,6-diisopropylphenyl)urea], the inhibition at 0.01 µM amounted to 46.8%. With `Cc1ncc(NC(=O)Nc2c(C(C)C)cccc2C(C)C)c(-c2ccccc2Cl)n1` [Compound 46, N-[4-(2-Chlorophenyl)-2-methylpyrimidin-5-yl]-N'-(2,6-diisopropylphenyl)urea], the inhibition at 0.01 µM is 32%.

Turning to `CC(C)c1cccc(C(C)C)c1NC(=O)Nc1cnc(C(C)(C)C)nc1-c1ccccc1Cl` [Compound 50, N-[2-t-Butyl-4-(2-chlorophenyl)pyrimidin-5-yl]-N'-(2,6-diisopropylphenyl)urea], the inhibition at 0.01 µM came out at 48.4%. In the case of `CCOc1ncc(NC(=O)Nc2c(C(C)C)cccc2C(C)C)c(-c2ccccc2Cl)n1` [Compound 52, N-[4-(2-Chlorophenyl)-2-ethoxypyrimidin-5-yl]-N'-(2,6-diisopropylphenyl)urea], the inhibition at 0.01 µM is 64.7%. `CCc1cccc(CC)c1NC(=O)Nc1cnc(N2CCCC2)nc1-c1ccccc1Cl` [Compound 53, N-[4-(2-Chlorophenyl)-2-(N-pyrrolidino)pyrimidin-5-yl]-N'-(2,6-diethylphenyl)urea]: the inhibition at 0.01 µM came to 70%.

As for `CC(C)c1cccc(C(C)C)c1NC(=O)Nc1cnc(N2CCCCC2)nc1-c1ccccc1Cl` [Compound 56, N-[4-(2-Chlorophenyl)-2-(N-piperidino)pyrimidin-5-yl]-N'-(2,6-diisopropylphenyl)urea], the inhibition at 0.01 µM was 69.5%. With `CC(C)c1cccc(C(C)C)c1NC(=O)Nc1cnc(N2CCN(C)CC2)nc1-c1ccccc1Cl` [Compound 60, N-[4-(2-Chlorophenyl)-2-(4-methyl-1-piperazino)pyrimidin-5-yl]-N'-(2,6-diisopropylphenyl)urea], the inhibition at 0.01 µM is 40.1%. `CC(C)c1cccc(C(C)C)c1NC(=O)Nc1ccc(-c2ccccc2)nc1-c1ccccc1Cl` [Compound 63, N-[2-(2-Chlorophenyl)-6-phenylpyridin-3-yl]-N'-(2,6-diisopropylphenyl)urea]: the inhibition at 0.01 µM was 53.1%. Take `Cc1ccc(NC(=O)Nc2c(C(C)C)cccc2C(C)C)c(-c2ccccc2Cl)n1` [Compound 64, N-[2-(2-Chlorophenyl)-6-methylpyridin-3-yl]-N'-(2,6-diisopropylphenyl)urea]: the inhibition at 0.01 µM was 43.6%. Consider `CCCCCCCc1ccc(NC(=O)Nc2c(C(C)C)cccc2C(C)C)c(-c2ccccc2Cl)n1` [Compound 65, N-[2-(2-Chlorophenyl)-6-(n-heptyl)pyridin-3-yl]-N'-(2,6-diisopropylphenyl)urea], for which the inhibition at 0.01 µM stood at 29.8%. With `CC(C)c1cccc(C(C)C)c1NC(=O)Nc1ccc(C2CCCCC2)nc1-c1ccccc1Cl` [Compound 67, N-[2-(2-Chlorophenyl)-6-cyclohexylpyridin-3-yl]-N'-(2,6-diisopropylphenyl)urea], the inhibition at 0.01 µM was 58%.

The experiment is the same for the next values; noted with them: 1 μM; rabbit intestinal mucosa microsomes; read-out: Inhibition rate.
Regarding `Cc1cccc(C(C)C)c1NC(=O)Nc1c(C)nc(-c2ccccc2)nc1-c1ccccc1Cl` [Compound 1, N-[4-(2-Chlorophenyl)-6-methyl-2-phenylpyrimidin-5-yl]-N'-(2-isopropyl-6-methylphenyl)urea], the inhibition at 1 µM came to 98%. Consider `Cc1cc(C)c(NC(=O)Nc2c(C)nc(-c3ccccc3)nc2-c2ccccc2Cl)c(C)c1` [Compound 3, N-[4-(2-Chlorophenyl)-6-methyl-2-phenylpyrimidin-5-yl]-N'-(2,4,6-trimethylphenyl)urea], for which the inhibition at 1 µM came out at 88.3%. For `Cc1nc(-c2ccccc2)nc(-c2ccccc2Cl)c1NC(=O)Nc1ccc(N(C)C)cc1` [Compound 6, N-[4-(2-Chlorophenyl)-6-methyl-2-phenylpyrimidin-5-yl]-N'-(4-dimethylaminophenyl)urea], the inhibition at 1 µM came out at 23%.

With `Cc1cccc(C)c1NC(=O)Nc1cnc(-c2ccccc2)nc1-c1ccccc1Cl` [Compound 13, N-[4-(2-Chlorophenyl)-2-phenylpyrimidin-5-yl]-N'-(2,6-dimethylphenyl)urea], the inhibition at 1 µM is 97.5%.

Take `Cc1cc(C)c(NC(=O)Nc2cnc(-c3ccccc3)nc2-c2ccccc2Cl)c(C)c1` [Compound 18, N-[4-(2-Chlorophenyl)-2-phenylpyrimidin-5-yl]N'-(2,4,6-trimethylphenyl) urea]: the inhibition at 1 µM was determined as 79.7%. For `O=C(Nc1cnc(-c2ccccc2)nc1-c1ccccc1Cl)Nc1c(F)cc(F)cc1F` [Compound 23, N-[4-(2-Chlorophenyl)-2-phenylpyrimidin-5-yl]-N'-(2,4,6-trifluorophenyl)urea], the inhibition at 1 µM was found to be 87%.

For orientation: inhibition means the percentage by which the read-out fell short of the control.
